{"source": "patent US20100160454A1", "about": "“ANTIMICROBIAL AGENTS, COMPOSITIONS AND PRODUCTS CONTAINING THE SAME, AND METHODS OF USING THE COMPOSITIONS AND PRODUCTS” (Eastman Chemical Company, priority 2008, published 2010)", "experiment_in_all_cases": "Microbiological challenge testing in BPW broth, graded subculture counts", "type_in_all_cases": "cell-based", "key": {"[1]": {"system": "Streptococcus mutans ATCC 35668", "summary_of_the_method": "(§1)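 Serial 1:10 dilutions were made in pH 7.2 phosphate buffer and spread-plated onto PCA, and colonies were counted after 48 h or more at 35 °C. In the challenge, BPW–dextrose tubes containing the test material received inoculum at 10^5–10^6 CFU/mL at time zero. Controls without test material served as reference.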"}, "[2]": {"system": "Staphylococcus epidermidis ATCC 12228", "summary_of_the_method": "as §1"}, "[3]": {"system": "Staphylococcus aureus ATCC 25923", "details": "S. aureus", "summary_of_the_method": "as §1"}, "Aeromonas sp. Wild type": {"system": "Aeromonas sp. Wild type", "summary_of_the_method": "as §1"}, "[4]": {"system": "Burkholderia cepacia Wild type", "details": "B. cepacia", "summary_of_the_method": "as §1"}, "[5]": {"system": "Bacillus subtilis Wild type", "summary_of_the_method": "as §1"}}}
{"compound": "OCC1CCCCC1CO", "note": "(stereo not drawn) [1,2-CHDM, 1,2-cyclohexanedimethanol]", "values": [{"measurement": "S. mutans growth grade, 3 day", "setting": "[1]; 0.5% weight/volume", "result": "4 (1000 to 10,000 colonies countable (thus 10,000 CFU/mL to 100,000 CFU/mL))"}, {"measurement": "S. mutans growth grade, 13 day", "setting": "[1]; 0.5% weight/volume", "result": "4 (1000 to 10,000 colonies countable (thus 10,000 CFU/mL to 100,000 CFU/mL))"}, {"measurement": "S. mutans growth grade, 30 day", "setting": "[1]; 0.5% weight/volume", "result": "4 (1000 to 10,000 colonies countable (thus 10,000 CFU/mL to 100,000 CFU/mL))"}, {"measurement": "S. mutans growth grade, 3 day", "setting": "[1]; 1.25% weight/volume", "result": "2 (52 to 100 colonies counted (thus 520 to 1000 CFU/mL))"}, {"measurement": "S. mutans growth grade, 13 day", "setting": "[1]; 1.25% weight/volume", "result": 0}, {"measurement": "S. mutans growth grade, 30 day", "setting": "[1]; 1.25% weight/volume", "result": 0}, {"measurement": "S. mutans growth grade, 3 day", "setting": "[1]; 2.5% weight/volume", "result": "1 (0 to 51 colonies counted (thus 10 to 510 CFU/mL based on 0.1-mL sample))"}, {"measurement": "S. mutans growth grade, 13 day", "setting": "[1]; 2.5% weight/volume", "result": 0}, {"measurement": "S. mutans growth grade, 30 day", "setting": "[1]; 2.5% weight/volume", "result": 0}, {"measurement": "S. mutans growth grade, 3 day", "setting": "[1]; 5.0% weight/volume", "result": 0}, {"measurement": "S. mutans growth grade, 13 day", "setting": "[1]; 5.0% weight/volume", "result": 0}, {"measurement": "S. mutans growth grade, 30 day", "setting": "[1]; 5.0% weight/volume", "result": 0}, {"measurement": "S. epidermidis growth grade, 3 day", "setting": "[2]; 0.5% weight/volume", "result": "4 (1000 to 10,000 colonies countable (thus 10,000 CFU/mL to 100,000 CFU/mL))"}, {"measurement": "S. epidermidis growth grade, 13 day", "setting": "[2]; 0.5% weight/volume", "result": "3 (100 to 1000 colonies (thus 1000 to 10,000 CFU/mL))"}, {"measurement": "S. epidermidis growth grade, 30 day", "setting": "[2]; 0.5% weight/volume", "result": "4 (1000 to 10,000 colonies countable (thus 10,000 CFU/mL to 100,000 CFU/mL))"}, {"measurement": "S. epidermidis growth grade, 3 day", "setting": "[2]; 1.25% weight/volume", "result": 2.3}, {"measurement": "S. epidermidis growth grade, 13 day", "setting": "[2]; 1.25% weight/volume", "result": "1 (0 to 51 colonies counted (thus 10 to 510 CFU/mL based on 0.1-mL sample))"}, {"measurement": "S. epidermidis growth grade, 30 day", "setting": "[2]; 1.25% weight/volume", "result": "3 (100 to 1000 colonies (thus 1000 to 10,000 CFU/mL))"}, {"measurement": "S. epidermidis growth grade, 3 day", "setting": "[2]; 2.5% weight/volume", "result": 0}, {"measurement": "S. epidermidis growth grade, 13 day", "setting": "[2]; 2.5% weight/volume", "result": 0}, {"measurement": "S. epidermidis growth grade, 30 day", "setting": "[2]; 2.5% weight/volume", "result": 0}, {"measurement": "S. epidermidis growth grade, 3 day", "setting": "[2]; 5.0% weight/volume", "result": 0}, {"measurement": "S. epidermidis growth grade, 13 day", "setting": "[2]; 5.0% weight/volume", "result": 0}, {"measurement": "S. epidermidis growth grade, 30 day", "setting": "[2]; 5.0% weight/volume", "result": 0}, {"measurement": "Grade", "setting": "[3]; 0.5% (wt/vol), 3 day", "result": "4 (1000 to 10,000 colonies countable (thus 10,000 CFU/mL to 100,000 CFU/mL))"}, {"measurement": "Grade", "setting": "[3]; 0.5% (wt/vol), 14 day", "result": "4 (1000 to 10,000 colonies countable (thus 10,000 CFU/mL to 100,000 CFU/mL))"}, {"measurement": "Grade", "setting": "[3]; 0.5% (wt/vol), 30 day", "result": "4 (1000 to 10,000 colonies countable (thus 10,000 CFU/mL to 100,000 CFU/mL))"}, {"measurement": "Grade", "setting": "[3]; 1.25% (wt/vol), 3 day", "result": 3.3}, {"measurement": "Grade", "setting": "[3]; 1.25% (wt/vol), 14 day", "result": 2.7}, {"measurement": "Grade", "setting": "[3]; 1.25% (wt/vol), 30 day", "result": "4 (1000 to 10,000 colonies countable (thus 10,000 CFU/mL to 100,000 CFU/mL))"}, {"measurement": "Grade", "setting": "[3]; 2.5% (wt/vol), 3 day", "result": 0}, {"measurement": "Grade", "setting": "[3]; 2.5% (wt/vol), 14 day", "result": 0}, {"measurement": "Grade", "setting": "[3]; 2.5% (wt/vol), 30 day", "result": 0}, {"measurement": "Grade", "setting": "[3]; 5.0% (wt/vol), 3 day", "result": 0}, {"measurement": "Grade", "setting": "[3]; 5.0% (wt/vol), 14 day", "result": 0}, {"measurement": "Grade", "setting": "[3]; 5.0% (wt/vol), 30 day", "result": 0}, {"measurement": "Aeromonas sp growth grade, 3 day", "setting": "Aeromonas sp. Wild type; 0.5% weight/volume", "result": "5 (More than 10,000 colonies estimated (thus more than 100,000 CFU/mL))"}, {"measurement": "Aeromonas sp growth grade, 14 day", "setting": "Aeromonas sp. Wild type; 0.5% weight/volume", "result": "4 (1000 to 10,000 colonies countable (thus 10,000 CFU/mL to 100,000 CFU/mL))"}, {"measurement": "Aeromonas sp growth grade, 30 day", "setting": "Aeromonas sp. Wild type; 0.5% weight/volume", "result": "4 (1000 to 10,000 colonies countable (thus 10,000 CFU/mL to 100,000 CFU/mL))"}, {"measurement": "Aeromonas sp growth grade, 3 day", "setting": "Aeromonas sp. Wild type; 1.25% weight/volume", "result": "3 (100 to 1000 colonies (thus 1000 to 10,000 CFU/mL))"}, {"measurement": "Aeromonas sp growth grade, 14 day", "setting": "Aeromonas sp. Wild type; 1.25% weight/volume", "result": "2 (52 to 100 colonies counted (thus 520 to 1000 CFU/mL))"}, {"measurement": "Aeromonas sp growth grade, 30 day", "setting": "Aeromonas sp. Wild type; 1.25% weight/volume", "result": "1 (0 to 51 colonies counted (thus 10 to 510 CFU/mL based on 0.1-mL sample))"}, {"measurement": "Aeromonas sp growth grade, 3 day", "setting": "Aeromonas sp. Wild type; 2.5% weight/volume", "result": 0}, {"measurement": "Aeromonas sp growth grade, 14 day", "setting": "Aeromonas sp. Wild type; 2.5% weight/volume", "result": "1 (0 to 51 colonies counted (thus 10 to 510 CFU/mL based on 0.1-mL sample))"}, {"measurement": "Aeromonas sp growth grade, 30 day", "setting": "Aeromonas sp. Wild type; 2.5% weight/volume", "result": 0}, {"measurement": "Aeromonas sp growth grade, 3 day", "setting": "Aeromonas sp. Wild type; 5.0% weight/volume", "result": 0}, {"measurement": "Aeromonas sp growth grade, 14 day", "setting": "Aeromonas sp. Wild type; 5.0% weight/volume", "result": 0}, {"measurement": "Aeromonas sp growth grade, 30 day", "setting": "Aeromonas sp. Wild type; 5.0% weight/volume", "result": 0}, {"measurement": "Grade", "setting": "[4]; 0.5% (wt/vol), 3 day", "result": "4 (1000 to 10,000 colonies countable (thus 10,000 CFU/mL to 100,000 CFU/mL))"}, {"measurement": "Grade", "setting": "[4]; 0.5% (wt/vol), 14 day", "result": "4 (1000 to 10,000 colonies countable (thus 10,000 CFU/mL to 100,000 CFU/mL))"}, {"measurement": "Grade", "setting": "[4]; 0.5% (wt/vol), 30 day", "result": "4 (1000 to 10,000 colonies countable (thus 10,000 CFU/mL to 100,000 CFU/mL))"}, {"measurement": "Grade", "setting": "[4]; 1.25% (wt/vol), 3 day", "result": "1 (0 to 51 colonies counted (thus 10 to 510 CFU/mL based on 0.1-mL sample))"}, {"measurement": "Grade", "setting": "[4]; 1.25% (wt/vol), 14 day", "result": 0}, {"measurement": "Grade", "setting": "[4]; 1.25% (wt/vol), 30 day", "result": 0}, {"measurement": "Grade", "setting": "[4]; 2.5% (wt/vol), 3 day", "result": 0}, {"measurement": "Grade", "setting": "[4]; 2.5% (wt/vol), 14 day", "result": 0}, {"measurement": "Grade", "setting": "[4]; 2.5% (wt/vol), 30 day", "result": 0}, {"measurement": "Grade", "setting": "[4]; 5.0% (wt/vol), 3 day", "result": 0}, {"measurement": "Grade", "setting": "[4]; 5.0% (wt/vol), 14 day", "result": 0}, {"measurement": "Grade", "setting": "[4]; 5.0% (wt/vol), 30 day", "result": 0}, {"measurement": "B. subtillis growth grade, 3 day", "setting": "[5]; 0.5% weight/volume", "result": "4 (1000 to 10,000 colonies countable (thus 10,000 CFU/mL to 100,000 CFU/mL))"}, {"measurement": "B. subtillis growth grade, 14 day", "setting": "[5]; 0.5% weight/volume", "result": "3 (100 to 1000 colonies (thus 1000 to 10,000 CFU/mL))"}, {"measurement": "B. subtillis growth grade, 30 day", "setting": "[5]; 0.5% weight/volume", "result": "4 (1000 to 10,000 colonies countable (thus 10,000 CFU/mL to 100,000 CFU/mL))"}, {"measurement": "B. subtillis growth grade, 3 day", "setting": "[5]; 1.25% weight/volume", "result": "2 (52 to 100 colonies counted (thus 520 to 1000 CFU/mL))"}, {"measurement": "B. subtillis growth grade, 14 day", "setting": "[5]; 1.25% weight/volume", "result": "1 (0 to 51 colonies counted (thus 10 to 510 CFU/mL based on 0.1-mL sample))"}, {"measurement": "B. subtillis growth grade, 30 day", "setting": "[5]; 1.25% weight/volume", "result": "1 (0 to 51 colonies counted (thus 10 to 510 CFU/mL based on 0.1-mL sample))"}, {"measurement": "B. subtillis growth grade, 3 day", "setting": "[5]; 2.5% weight/volume", "result": 0}, {"measurement": "B. subtillis growth grade, 14 day", "setting": "[5]; 2.5% weight/volume", "result": 0}, {"measurement": "B. subtillis growth grade, 30 day", "setting": "[5]; 2.5% weight/volume", "result": 0}, {"measurement": "B. subtillis growth grade, 3 day", "setting": "[5]; 5.0% weight/volume", "result": 0}, {"measurement": "B. subtillis growth grade, 14 day", "setting": "[5]; 5.0% weight/volume", "result": 0}, {"measurement": "B. subtillis growth grade, 30 day", "setting": "[5]; 5.0% weight/volume", "result": 0}]}
